# Reference: US20250262186A1 (SANOFI, priority 2022, published 2025)
# Target: T1, ERα (Homo sapiens, UniProt P03372)
# T1 construct: made using a breast cancer cell ERα in cell western assay; host or cells: MCF7
# T1 sequence (P03372 1-595): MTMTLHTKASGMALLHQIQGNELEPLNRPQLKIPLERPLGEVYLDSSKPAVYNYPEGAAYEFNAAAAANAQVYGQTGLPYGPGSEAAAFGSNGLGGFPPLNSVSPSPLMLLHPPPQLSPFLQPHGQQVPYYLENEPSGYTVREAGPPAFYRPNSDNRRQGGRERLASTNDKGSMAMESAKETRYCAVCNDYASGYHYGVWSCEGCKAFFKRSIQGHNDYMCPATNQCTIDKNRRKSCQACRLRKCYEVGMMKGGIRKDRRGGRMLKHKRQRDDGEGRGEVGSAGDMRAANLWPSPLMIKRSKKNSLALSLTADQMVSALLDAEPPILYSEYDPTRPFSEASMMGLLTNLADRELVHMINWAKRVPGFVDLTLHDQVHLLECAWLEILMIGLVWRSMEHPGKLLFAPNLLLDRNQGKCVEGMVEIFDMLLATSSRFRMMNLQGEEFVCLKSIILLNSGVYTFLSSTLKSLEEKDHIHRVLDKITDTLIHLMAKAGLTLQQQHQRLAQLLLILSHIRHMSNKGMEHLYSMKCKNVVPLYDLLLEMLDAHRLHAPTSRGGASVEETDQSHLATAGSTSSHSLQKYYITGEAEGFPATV
# Assay: Estrogen receptor degradation activity: breast cancer cell ERα in cell western assay in MCF7 cells
# Format: cell-based
# Settings: 0.3 μM, 4 hours, relative to fulvestrant 0.1 μM positive control
# Method: Said test involves measuring the in vitro degradation activity of the compounds of the Table 1a.
# The measurements of the degradation activities were made using a breast cancer cell ERα in cell western assay as described hereunder.
# MCF7 cells (ATCC) were seeded in 384 wells microplate (collagen coated) at a concentration of 10000 cells/30 μL per well in red phenol free MEM alpha medium (invitrogen) containing 5% charcoal dextran striped FBS. The following day, 9 points serial 1:5 dilution of each compound was added to the cells in 2.5 μL at final concentrations ranging from 0.3-0.0000018 μM (in table 2), or 0.1 μM for fulvestrant (using as positive control). At 4 hours post compound addition the cells were fixed by adding 25 μL of formalin (final concentration 5% formalin containing 0.1% triton) for 10 minutes at room temperature and then washed twice with PBS. Then, 50 μL of LI-COR blocking buffer containing 0.1% Triton was added to plate for 30 minutes at room temperature. LI-COR blocking buffer was removed and cells were incubated overnight at cold room with 50 μL anti-ER rabbit monoclonal antibody (Thermo scientific MA1-39540) diluted at 1:1000 in LI-COR blocking buffer containing 0.1% tween-20. Wells which were treated with blocking buffer but no antibody were used as background control. Wells were washed twice with PBS (0.1% tween-20) and incubated at 37° C. for 60 minutes in LI-COR (0.1% tween-20) containing goat anti-rabbit antibody Alexa 488 (1:1000) and Syto-64 a DNA dye (2 μM final concentration). Cells were then washed 3 times in PBS and scanned in ACUMEN explorer (TTP-Labtech). Integrated intensities in the green fluorescence and red fluorescence were measured to determine the levels of ERα and DNA respectively.
# The degradation activity with respect to estrogen receptors in this test is given by the concentration which degrades 50% of the estrogen receptor (or IC50) in nM.
# The % of ERα levels decrease were determined as follows: % inhibition=100*(1−(sample−fulvestrant: DMSO−fulvestrant)).
row,% Degradation At 0.3 μM [%],SMILES
1,75,"Oc1ccc2c(c1)SCCC(c1ccc(Cl)cc1Cl)=C2c1cccc(O[C@@H]2CCN(CCCF)C2)c1 [Compound 41, (R)-4-(2,4-dichlorophenyl)-5-(3-((1-(3-fluoropropyl)pyrrolidin-3-yl)oxy)phenyl)-2,3-dihydrobenzo[b]thiepin-8-ol]"
2,80,"Cc1c(O[C@@H]2CCN(CCCF)C2)cccc1C1=C(c2ccccc2)CCCc2cc(C(=O)O)ccc21 [Compound 15, (R)-9-(3-((1-(3-fluoropropyl)pyrrolidin-3-yl)oxy)-2-methylphenyl)-8-phenyl-6,7-dihydro-5H-benzo[7]annulene-3-carboxylic acid]"
3,67,"CC1CCc2cc(C(=O)O)ccc2C(c2cccc(OC3CCN(CCCF)C3)c2)=C1c1cccc(Cl)c1 (single isomer, unassigned; isomer 2) [Compound 37]"
4,85,"Cl.O=C(O)c1ccc2c(c1)CCCC(C1CCC(F)(F)CC1)=C2c1cccc(O[C@@H]2CCN(CCCF)C2)c1 [Compound 10, (R)-8-(4,4-difluorocyclohexyl)-9-(3-((1-(3-fluoropropyl)pyrrolidin-3-yl)oxy)phenyl)-6,7-dihydro-5H-benzo[7]annulene-3-carboxylic acid hydrochloride]"
5,69,"CC1CCc2cc(C(=O)O)ccc2C(c2cccc(OC3CCN(CCCF)C3)c2)=C1c1cccc(Cl)c1 (single isomer, unassigned; isomer 1) [Compound 36]"
6,58,"O=C(O)c1ccc2c(c1)CCCC(c1ccc(Cl)cc1Cl)=C2c1cccc(CC2CN(CCCF)C2)c1 [Compound 31, 8-(2,4-dichlorophenyl)-9-(3-((1-(3-fluoropropyl)azetidin-3-yl)methyl)phenyl)-6,7-dihydro-5H-benzo[7]annulene-3-carboxylic acid]"
7,85,"O=C(O)c1ccc2c(c1)CCCC(c1ccc(Cl)cc1Cl)=C2c1cccc(O[C@@H]2CCN(CCCF)C2)c1 [Compound 1, (R)-8-(2,4-dichlorophenyl)-9-(3-((1-(3-fluoropropyl)pyrrolidin-3-yl)oxy)phenyl)-6,7-dihydro-5H-benzo[7]annulene-3-carboxylic acid]"
8,88,"Cl.O=C(O)c1ccc2c(c1)CCC(c1ccc(Cl)cc1Cl)=C2c1cccc(O[C@@H]2CCN(CCCF)C2)c1 [Compound 40, (R)-6-(2,4-dichlorophenyl)-5-(3-((1-(3-fluoropropyl)pyrrolidin-3-yl)oxy)phenyl)-7,8-dihydronaphthalene-2-carboxylic acid hydrochloride]"
9,84,"Cc1ccc(O[C@@H]2CCN(CCCF)C2)cc1C1=C(c2ccccc2Cl)CCCc2cc(C(=O)O)ccc21 [Compound 23, (R)-8-(2-chlorophenyl)-9-(5-((1-(3-fluoropropyl)pyrrolidin-3-yl)oxy)-2-methylphenyl)-6,7-dihydro-5H-benzo[7]annulene-3-carboxylic acid]"
10,78,"FCCCN1CC[C@@H](Oc2cccc(C3=C(c4ccccc4Cl)CCCc4ccccc43)c2)C1 [Compound 39, (R)-3-(3-(8-(2-chlorophenyl)-6,7-dihydro-5H-benzo[7]annulen-9-yl)phenoxy)-1-(3-fluoropropyl)pyrrolidine]"
11,77,"Cl.O=C(O)c1ccc2c(c1)CCCC(c1ccccc1)=C2c1cc(O[C@@H]2CCN(CCCF)C2)ccc1F [Compound 25, (R)-9-(2-fluoro-5-((1-(3-fluoropropyl)pyrrolidin-3-yl)oxy)phenyl)-8-phenyl-6,7-dihydro-5H-benzo[7]annulene-3-carboxylic acid, hydrochloride]"
12,85,"Cl.O=C(O)c1ccc2c(c1)CCCC(c1ccc(Cl)cc1Cl)=C2c1cccc(O[C@@H]2CCN(CCCF)C2)c1F [Compound 21, (R)-8-(2,4-dichlorophenyl)-9-(2-fluoro-3-((1-(3-fluoropropyl)pyrrolidin-3-yl)oxy)phenyl)-6,7-dihydro-5H-benzo[7]annulene-3-carboxylic acid, hydrochloride]"
13,84,"O=C(O)c1ccc2c(c1)CCCC(c1ccccc1Cl)=C2c1cccc(O[C@@H]2CCN(CCCF)C2)c1 [Compound 3, (R)-8-(2-chlorophenyl)-9-(3-((1-(3-fluoropropyl)pyrrolidin-3-yl)oxy)phenyl)-6,7-dihydro-5H-benzo[7]annulene-3-carboxylic acid]"
14,65,"Cl.O=C(O)c1ccc2c(c1)OCCC(c1ccc(Cl)cc1Cl)=C2c1cccc(O[C@@H]2CCN(CCCF)C2)c1 [Compound 35, (R)-4-(2,4-dichlorophenyl)-5-(3-((1-(3-fluoropropyl)pyrrolidin-3-yl)oxy)phenyl)-2,3-dihydrobenzo[b]oxepine-8-carboxylic acid hydrochloride]"
15,87,"Cc1c(O[C@@H]2CCN(CCCF)C2)cccc1C1=C(c2ccc(Cl)cc2Cl)CCCc2cc(C(=O)O)ccc21 [Compound 17, (R)-8-(2,4-dichlorophenyl)-9-(3-((1-(3-fluoropropyl)pyrrolidin-3-yl)oxy)-2-methylphenyl)-6,7-dihydro-5H-benzo[7]annulene-3-carboxylic acid]"
16,78,"Cc1cc(F)ccc1C1=C(c2cccc(O[C@@H]3CCN(CCCF)C3)c2C)c2ccc(C(=O)O)cc2CCC1 [Compound 18, (R)-8-(4-fluoro-2-methylphenyl)-9-(3-((1-(3-fluoropropyl)pyrrolidin-3-yl)oxy)-2-methylphenyl)-6,7-dihydro-5H-benzo[7]annulene-3-carboxylic acid]"
17,85,"Cc1ccc(C2=C(c3cccc(O[C@@H]4CCN(CCCF)C4)c3)c3ccc(C(=O)O)cc3CCC2)c(F)c1 [Compound 7, (R)-8-(2-fluoro-4-methylphenyl)-9-(3-((1-(3-fluoropropyl)pyrrolidin-3-yl)oxy)phenyl)-6,7-dihydro-5H-benzo[7]annulene-3-carboxylic acid]"
18,87,"O=C(O)c1ccc2c(c1)CCCC(c1ccc(Cl)cc1Cl)=C2c1cccc(CC2CCN(CCCF)C2)c1 (single isomer, unassigned; isomer 1) [Compound 28, 8-(2,4-dichlorophenyl)-9-(3-((1-(3-fluoropropyl)pyrrolidin-3-yl)methyl)phenyl)-6,7-dihydro-5H-benzo[7]annulene-3-carboxylic acid, Isomer 1]"
